From PubChem BioAssay AID2060891 (Molecular Pharmacology Branch, DTP, NCI, 2025)
Each block holds one compound with its values, some of them ahead of it.

Tested on: K98450-129-R-PDC complex spheroid growth, percent test/control
Test: Anticancer human tumor K98450-129-R-PDC patient-derived colon adenocarcinoma cell line growth inhibition [RAS]
Settings: for IC50: curve of first compound; for viability, T/C: stronger effect = lower value
Method in brief: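 Tumour cells grown as complex spheroids with HUVEC endothelial cells and mesenchymal stem cells, treated with RAS pathway inhibitor combinations. Each agent spans half-log steps from near clinical Cmax, or 10 microM where Cmax is unknown.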

[1] = second compound 0.0316 µM, first compound 0.0316 µM
[2] = second compound 0.0316 µM, first compound 0.1 µM
[3] = second compound 0.0316 µM, first compound 0.316 µM
[4] = second compound 0.0316 µM, first compound 1 µM
[5] = second compound 0.1 µM, first compound 0.0316 µM
[6] = second compound 0.1 µM, first compound 0.1 µM
[7] = second compound 0.1 µM, first compound 0.316 µM
[8] = second compound 0.1 µM, first compound 1 µM
[9] = second compound 0.316 µM, first compound 0.0316 µM
[10] = second compound 0.316 µM, first compound 0.1 µM
[11] = second compound 0.316 µM, first compound 0.316 µM
[12] = second compound 0.316 µM, first compound 1 µM
[13] = second compound 1 µM, first compound 0.0316 µM
[14] = second compound 1 µM, first compound 0.1 µM
[15] = second compound 1 µM, first compound 0.316 µM
[16] = second compound 1 µM, first compound 1 µM
[17] = second compound 3.16 µM, first compound 0.0316 µM
[18] = second compound 3.16 µM, first compound 0.1 µM
[19] = second compound 3.16 µM, first compound 0.316 µM
[20] = second compound 3.16 µM, first compound 1 µM
[21] = second compound 10 µM, first compound 0.0316 µM
[22] = second compound 10 µM, first compound 0.1 µM
[23] = second compound 10 µM, first compound 0.316 µM
[24] = second compound 10 µM, first compound 1 µM
[25] = second compound 0.0316 µM, first compound 0.000949 µM
[26] = second compound 0.0316 µM, first compound 0.003 µM
[27] = second compound 0.0316 µM, first compound 0.00949 µM
[28] = second compound 0.0316 µM, first compound 0.03 µM
[29] = second compound 0.0316 µM, first compound 0.0949 µM
[30] = second compound 0.0316 µM, first compound 0.3 µM
[31] = second compound 0.1 µM, first compound 0.000949 µM
[32] = second compound 0.1 µM, first compound 0.003 µM
[33] = second compound 0.1 µM, first compound 0.00949 µM
[34] = second compound 0.1 µM, first compound 0.03 µM
[35] = second compound 0.1 µM, first compound 0.0949 µM
[36] = second compound 0.1 µM, first compound 0.3 µM
[37] = second compound 0.316 µM, first compound 0.000949 µM
[38] = second compound 0.316 µM, first compound 0.003 µM
[39] = second compound 0.316 µM, first compound 0.00949 µM
[40] = second compound 0.316 µM, first compound 0.03 µM
[41] = second compound 0.316 µM, first compound 0.0949 µM
[42] = second compound 0.316 µM, first compound 0.3 µM
[43] = second compound 1 µM, first compound 0.000949 µM
[44] = second compound 1 µM, first compound 0.003 µM
[45] = second compound 1 µM, first compound 0.00949 µM
[46] = second compound 1 µM, first compound 0.03 µM
[47] = second compound 1 µM, first compound 0.0949 µM
[48] = second compound 1 µM, first compound 0.3 µM
[49] = second compound 3.16 µM, first compound 0.000949 µM
[50] = second compound 3.16 µM, first compound 0.003 µM
[51] = second compound 3.16 µM, first compound 0.00949 µM
[52] = second compound 3.16 µM, first compound 0.03 µM
[53] = second compound 3.16 µM, first compound 0.0949 µM
[54] = second compound 3.16 µM, first compound 0.3 µM
[55] = second compound 10 µM, first compound 0.000949 µM
[56] = second compound 10 µM, first compound 0.003 µM
[57] = second compound 10 µM, first compound 0.00949 µM
[58] = second compound 10 µM, first compound 0.03 µM
[59] = second compound 10 µM, first compound 0.0949 µM
[60] = second compound 10 µM, first compound 0.3 µM
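Note: spheroids exposed to agents for seven days before the viability readout.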
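Throughout, for viability, T/C: luminescence used as a proxy for viable cell amount.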

IC50 (second compound 0.0316 µM): 164 nM
IC50 (second compound 0.1 µM): 143 nM
IC50 (second compound 0.316 µM): 137 nM
IC50 (second compound 1 µM): 93.2 nM
IC50 (second compound 3.16 µM): 111 nM
IC50 (second compound 10 µM): 134 nM
SMILES: C=CC(=O)N1CCN(c2nc(OCC3CCCN3C)nc3c(F)c(-c4nc(N)cc(C)c4C(F)(F)F)c(Cl)cc23)C(C)C1 (stereo not drawn) + C#Cc1c(F)ccc2cc(O)cc(-c3ncc4c(N5CC6CCC(C5)N6)nc(OCC56CCCN5CC(F)C6)nc4c3F)c12
viability, T/C (second compound 0.0316 µM, first compound 0.00316 µM): 94.9%
viability, T/C (second compound 0.0316 µM, first compound 0.01 µM): 81.4%
viability, T/C [1]: 68.7%
viability, T/C [2]: 55%
viability, T/C [3]: 43.6%
viability, T/C [4]: 30.8%
viability, T/C (second compound 0.1 µM, first compound 0.00316 µM): 95.4%
viability, T/C (second compound 0.1 µM, first compound 0.01 µM): 81.3%
viability, T/C [5]: 68.7%
viability, T/C [6]: 54.3%
viability, T/C [7]: 40.5%
viability, T/C [8]: 31.4%
viability, T/C (second compound 0.316 µM, first compound 0.00316 µM): 97.7%
viability, T/C (second compound 0.316 µM, first compound 0.01 µM): 86.4%
viability, T/C [9]: 70.9%
viability, T/C [10]: 58.8%
viability, T/C [11]: 33.9%
viability, T/C [12]: 32.6%
viability, T/C (second compound 1 µM, first compound 0.00316 µM): 93.4%
viability, T/C (second compound 1 µM, first compound 0.01 µM): 88.7%
viability, T/C [13]: 67%
viability, T/C [14]: 50.2%
viability, T/C [15]: 37.2%
viability, T/C [16]: 33.7%
viability, T/C (second compound 3.16 µM, first compound 0.00316 µM): 94.3%
viability, T/C (second compound 3.16 µM, first compound 0.01 µM): 80.4%
viability, T/C [17]: 69.7%
viability, T/C [18]: 52%
viability, T/C [19]: 34.7%
viability, T/C [20]: 26.1%
viability, T/C (second compound 10 µM, first compound 0.00316 µM): 82.9%
viability, T/C (second compound 10 µM, first compound 0.01 µM): 78.4%
viability, T/C [21]: 68.8%
viability, T/C [22]: 53.1%
viability, T/C [23]: 38.9%
viability, T/C [24]: 24.6%

IC50 (second compound 0.0316 µM): 415 nM
IC50 (second compound 0.1 µM): 428 nM
IC50 (second compound 0.316 µM): 482 nM
IC50 (second compound 1 µM): 466 nM
IC50 (second compound 3.16 µM): 460 nM
IC50 (second compound 10 µM): 401 nM
SMILES: CC(=O)OC12COC1CC(O)C1(C)C(=O)C(O)C3=C(C)C(OC(=O)C(O)C(NC(=O)OC(C)(C)C)c4ccccc4)CC(O)(C(OC(=O)c4ccccc4)C21)C3(C)C (stereo not drawn) + C#Cc1c(F)ccc2cc(O)cc(-c3ncc4c(N5CC6CCC(C5)N6)nc(OCC56CCCN5CC(F)C6)nc4c3F)c12
viability, T/C [1]: 105%
viability, T/C [2]: 98%
viability, T/C [3]: 54.7%
viability, T/C [4]: 34.7%
viability, T/C (second compound 0.0316 µM, first compound 3.16 µM): 33.1%
viability, T/C (second compound 0.0316 µM, first compound 10 µM): 35.2%
viability, T/C [5]: 109%
viability, T/C [6]: 103%
viability, T/C [7]: 54.7%
viability, T/C [8]: 38%
viability, T/C (second compound 0.1 µM, first compound 3.16 µM): 32.8%
viability, T/C (second compound 0.1 µM, first compound 10 µM): 34.8%
viability, T/C [9]: 105%
viability, T/C [10]: 103%
viability, T/C [11]: 59%
viability, T/C [12]: 35.5%
viability, T/C (second compound 0.316 µM, first compound 3.16 µM): 32.4%
viability, T/C (second compound 0.316 µM, first compound 10 µM): 33.4%
viability, T/C [13]: 101%
viability, T/C [14]: 101%
viability, T/C [15]: 57.9%
viability, T/C [16]: 36.6%
viability, T/C (second compound 1 µM, first compound 3.16 µM): 32.6%
viability, T/C (second compound 1 µM, first compound 10 µM): 32.1%
viability, T/C [17]: 93.2%
viability, T/C [18]: 97.1%
viability, T/C [19]: 57.9%
viability, T/C [20]: 35%
viability, T/C (second compound 3.16 µM, first compound 3.16 µM): 34.2%
viability, T/C (second compound 3.16 µM, first compound 10 µM): 31.9%
viability, T/C [21]: 86.1%
viability, T/C [22]: 87.8%
viability, T/C [23]: 55%
viability, T/C [24]: 31.9%
viability, T/C (second compound 10 µM, first compound 3.16 µM): 30.6%
viability, T/C (second compound 10 µM, first compound 10 µM): 29%

IC50 (second compound 0.0316 µM): > 300 nM
IC50 (second compound 0.1 µM): > 300 nM
IC50 (second compound 0.316 µM): > 300 nM
IC50 (second compound 1 µM): > 300 nM
IC50 (second compound 3.16 µM): > 300 nM
IC50 (second compound 10 µM): > 300 nM
SMILES: CC1(C)CCC(Nc2ncc(C(F)(F)F)c(-c3c[nH]c4c(P(C)(C)=O)c(C#N)ccc34)n2)CN1 (stereo not drawn) + C#Cc1c(F)ccc2cc(O)cc(-c3ncc4c(N5CC6CCC(C5)N6)nc(OCC56CCCN5CC(F)C6)nc4c3F)c12
viability, T/C [25]: 102%
viability, T/C [26]: 103%
viability, T/C [27]: 100%
viability, T/C [28]: 105%
viability, T/C [29]: 88.5%
viability, T/C [30]: 58.6%
viability, T/C [31]: 107%
viability, T/C [32]: 105%
viability, T/C [33]: 111%
viability, T/C [34]: 100%
viability, T/C [35]: 89.3%
viability, T/C [36]: 66.6%
viability, T/C [37]: 111%
viability, T/C [38]: 105%
viability, T/C [39]: 99.8%
viability, T/C [40]: 100%
viability, T/C [41]: 89.9%
viability, T/C [42]: 69.7%
viability, T/C [43]: 102%
viability, T/C [44]: 97.8%
viability, T/C [45]: 99.3%
viability, T/C [46]: 105%
viability, T/C [47]: 89.2%
viability, T/C [48]: 64%
viability, T/C [49]: 96.1%
viability, T/C [50]: 95.3%
viability, T/C [51]: 95.1%
viability, T/C [52]: 97.7%
viability, T/C [53]: 94.2%
viability, T/C [54]: 66.7%
viability, T/C [55]: 89%
viability, T/C [56]: 94.2%
viability, T/C [57]: 91.4%
viability, T/C [58]: 98.4%
viability, T/C [59]: 85.9%
viability, T/C [60]: 61.9%

IC50 (second compound 0.0316 µM): 36.4 nM
IC50 (second compound 0.1 µM): 44.1 nM
IC50 (second compound 0.316 µM): 47.9 nM
IC50 (second compound 1 µM): 46.9 nM
IC50 (second compound 3.16 µM): 43.3 nM
IC50 (second compound 10 µM): 32.8 nM
SMILES: CCc1c2c(nc3ccc(O)cc13)-c1cc3c(c(=O)n1C2)COC(=O)[C@]3(O)CC + C#Cc1c(F)ccc2cc(O)cc(-c3ncc4c(N5CC6CCC(C5)N6)nc(OCC56CCCN5CC(F)C6)nc4c3F)c12
viability, T/C [25]: 103%
viability, T/C [26]: 102%
viability, T/C [27]: 75.7%
viability, T/C [28]: 52.2%
viability, T/C [29]: 43.3%
viability, T/C [30]: 33.5%
viability, T/C [31]: 109%
viability, T/C [32]: 101%
viability, T/C [33]: 80.5%
viability, T/C [34]: 52.5%
viability, T/C [35]: 44.4%
viability, T/C [36]: 33%
viability, T/C [37]: 108%
viability, T/C [38]: 101%
viability, T/C [39]: 84.5%
viability, T/C [40]: 54.4%
viability, T/C [41]: 43.6%
viability, T/C [42]: 34%
viability, T/C [43]: 109%
viability, T/C [44]: 100%
viability, T/C [45]: 86.8%
viability, T/C [46]: 54%
viability, T/C [47]: 42.9%
viability, T/C [48]: 36.9%
viability, T/C [49]: 95.7%
viability, T/C [50]: 89.3%
viability, T/C [51]: 78.1%
viability, T/C [52]: 51.9%
viability, T/C [53]: 43.6%
viability, T/C [54]: 33.1%
viability, T/C [55]: 87.2%
viability, T/C [56]: 84.3%
viability, T/C [57]: 75.5%
viability, T/C [58]: 50.9%
viability, T/C [59]: 37.2%
viability, T/C [60]: 33.8%
